For assay [1], the target named is T1, CT-L activity of purified rabbit 20S proteasome (Oryctolagus cuniculus, UniProt G1SU71+G1T4Q9).
T1 sequence (G1T4Q9 60-263): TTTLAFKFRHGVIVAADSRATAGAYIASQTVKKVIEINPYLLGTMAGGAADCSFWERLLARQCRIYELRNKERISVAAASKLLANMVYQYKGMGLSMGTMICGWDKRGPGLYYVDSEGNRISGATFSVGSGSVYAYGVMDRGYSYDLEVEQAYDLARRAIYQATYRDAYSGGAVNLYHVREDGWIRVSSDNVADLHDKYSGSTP
T1 sequence (G1SU71 29-241): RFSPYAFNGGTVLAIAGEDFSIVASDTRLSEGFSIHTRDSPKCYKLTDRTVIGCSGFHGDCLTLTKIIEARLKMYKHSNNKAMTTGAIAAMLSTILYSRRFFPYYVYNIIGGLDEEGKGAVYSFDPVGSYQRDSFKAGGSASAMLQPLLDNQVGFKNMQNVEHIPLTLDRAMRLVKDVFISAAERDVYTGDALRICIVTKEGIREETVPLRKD
In words: Fluorometric assay of CT-L proteolytic activity of purified 20S proteasome. It is filed as biochemical.

The subject of assay [2] is CT-L activity of rabbit 20S proteasome. In words: Dialysis. Type of assay: biochemical. As to conditions: compounds 10 µM; for inhibition of CT-L activity of the 20S proteasome in the absence of dialysis: 3 nM rabbit 20S proteasome, 30 min pre-incubation, no dialysis; for time of dialysis at which CT-L activity started to recover: dialysis at 4 °C against assay buffer.
The test system of a further assay is purified Calpain. As to the kind of experiment: Inhibition of purified Calpain. Type of assay: biochemical. The note with it: read-out: IC50 purified Calpain; data not reported in the paper.
Another assay deals with MCF-7 cells. The note with it: read-out: IC50 cell viability; cited from earlier work.
The test system of assay [3] is human breast and lung tumors implanted as xenografts. As to conditions: nude mice; cited from earlier work.
In assay [4] the test system is cancer cell lines derived from prostate, lung and multiple myeloma. The note with it: cited from earlier work.
Assay [5] concerns primary cells derived from patients with multiple myeloma. The note with it: cited from earlier work.
The mark [6] stands for this setting: read-out: In vitro IC50 CT-L activity, purified rabbit 20S proteasome, Suc-Leu-Leu-Val-Tyr-AMC, 1 hour at 37 °C, pH 7.6, tested in triplicate at least twice.

Read-outs that look alike come from different tables or passages of the source.

Regarding “4-(6-amino-3-chloro-1,4-dioxo-1,4-dihydronaphthalen-2-ylamino)-N- (pyridin-2-yl)benzenesulfonamide and 4-(7-amino-3-chloro-1,4-dioxo-1,4-dihydronaphthalen-2-ylamino)- N-(pyridin-2-yl)benzenesulfonamide [Compound 8]”, the “inhibitory activity in the in vitro enzymatic assay” value in assay [1] (CT-L, mixtures of isomers) was “did not lead to any appreciable inhibitory activities”.
`O=C1C=CC(=O)c2ccccc21` [1,4-naphthoquinone]: in assay [1], the IC50 is above 100 µM.
Regarding `O=C1C(Cl)=C(Cl)C(=O)c2ccccc21` [2,3-dichloronaphthoquinone], in assay [1] (setting [6]), the concentration for half-maximal inhibition (IC50) is above 100 µM.
Turning to `CC1=CC(=O)c2ccccc2C1=O` [2-methyl-1,4-naphthoquinone], in assay [1], the IC50 was above 100 µM.
Turning to `CC(C)C[C@H](NC(=O)[C@H](Cc1ccccc1)NC(=O)c1cnccn1)B(O)O` [Bortezomib, reference compound], in assay [2], the “inhibition of CT-L activity of the 20S proteasome in the absence of dialysis” value is on record as 99% and the “time of dialysis at which CT-L activity started to recover” value stood at 4 h.
In turn, `COc1cnc(NS(=O)(=O)c2ccc(NC3=C(Cl)C(=O)c4ccccc4C3=O)cc2)nc1` [Compound 2e, 4-(3-Chloro-1,4-dioxo-1,4-dihydronaphthalen-2-ylamino)-N-(5-methoxypyrimidin-2-yl)benzenesulfonamide] returned an IC50 in assay [1] of 100 µM.
The same measure, in the same setting: under `COc1cc(NS(=O)(=O)c2ccc(NC3=C(Cl)C(=O)c4ccccc4C3=O)cc2)nc(OC)n1` [Compound 2i, 4-(3-Chloro-1,4-dioxo-1,4-dihydronaphthalen-2-ylamino)-N-(2,6-dimethoxypyrimidin-4-yl)-benzenesulfonamide] stands 100 µM; under `CC1=C(Nc2ccc(S(=O)(=O)Nc3ccccn3)cc2)C(=O)c2ccccc2C1=O` [Compound 2k, 4-(3-Methyl-1,4-dioxo-1,4-dihydronaphthalen-2-ylamino)-N-(pyridin-2-yl)benzenesulfonamide], above 100 µM; under `CC1=C(Nc2ccc(S(=O)(=O)NC(=O)c3ccccc3)cc2)C(=O)c2ccccc2C1=O` [Compound 2l, N-(4-(3-methyl-1,4-dioxo-1,4-dihydronaphthalen-2-ylamino)phenylsulfonyl) benzamide], above 100 µM.
In turn, `COc1cnc(NS(=O)(=O)c2ccc(NC3=C(C)C(=O)c4ccccc4C3=O)cc2)nc1` [Compound 2m, N-(5-methoxypyrimidin-2-yl)-4-(3-methyl-1,4-dioxo-1,4-dihydronaphthalen-2-ylamino)-benzenesulfonamide] displayed an IC50 in assay [1] above 100 µM.
In assay [1], `O=C(NS(=O)(=O)c1ccc(NC2=CC(=O)c3ccccc3C2=O)cc1)c1ccccc1` [Compound 2p, N-(4-(1,4-dioxo-1,4-dihydronaphthalen-2-ylamino)phenylsulfonyl)benzamide] showed an IC50 above 100 µM.
On the same count and under the same terms, under `Cc1cc(NS(=O)(=O)c2ccc(NC3=CC(=O)c4ccccc4C3=O)cc2)no1` [Compound 2q, 4-(1,4-Dioxo-1,4-dihydronaphthalen-2-ylamino)-N-(5-methylisoxazol-3-yl)benzenesulfonamide] stands above 100 µM.
On to `O=C1C=C(Nc2ccc(S(=O)(=O)Nc3ccccn3)cc2)C(=O)c2ccccc21` [Compound 2r, 4-(1,4-Dioxo-1,4-dihydronaphthalen-2-ylamino)-N-(pyridin-2-yl)benzenesulfonamide], for which, in assay [1], the IC50 was above 100 µM.
Take `NS(=O)(=O)c1ccc(NC2=C(Cl)C(=O)c3ccccc3C2=O)cc1` [Compound 2t, 4-(3-Chloro-1,4-dioxo-1,4-dihydronaphthalen-2-ylamino)benzenesulfonamide]: the IC50 in assay [1] was above 100 µM.
Turning to `O=C1C(Cl)=C(Nc2ccc(S(=O)(=O)Nc3ccc(Cl)cc3)cc2)C(=O)c2ccccc21` [Compound 2u, 4-(3-Chloro-1,4-dioxo-1,4-dihydronaphthalen-2-ylamino)-N-(4-chlorophenyl)benzenesulfonamide], in assay [1], the half-inhibitory concentration (IC50) is above 100 µM.
On the same count and under the same terms, under `O=C1C(Cl)=C(Nc2ccc(S(=O)(=O)Nc3ccc(F)cc3F)cc2)C(=O)c2ccccc21` [Compound 2v, 4-(3-Chloro-1,4-dioxo-1,4-dihydronaphthalen-2-ylamino)-N-(2,4-difluorophenyl)benzenesulfonamide] stands above 100 µM; under `O=C1C(Cl)=C(Nc2ccc(S(=O)(=O)Nc3ccc(Cl)cc3Cl)cc2)C(=O)c2ccccc21` [Compound 2w, 4-(3-Chloro-1,4-dioxo-1,4-dihydronaphthalen-2-ylamino)-N-(2,4-dichlorophenyl)benzenesulfonamide], above 100 µM.
Regarding `CN(C1=C(Cl)C(=O)c2ccccc2C1=O)c1ccc(S(=O)(=O)Nc2ccccn2)cc1` [Compound 6a, 4-((3-Chloro-1,4-dioxo-1,4-dihydronaphthalen-2-yl)(methyl)amino)-N-(pyridin-2-yl) benzenesulfonamide], in assay [1] (setting [6]), the IC50 was above 100 µM.
On to `CCN(C1=C(Cl)C(=O)c2ccccc2C1=O)c1ccc(S(=O)(=O)Nc2ccccn2)cc1` [Compound 6b, 4-((3-Chloro-1,4-dioxo-1,4-dihydronaphthalen-2-yl)(ethyl)amino)-N-(pyridin-2-yl) benzenesulfonamide], for which, in assay [1] (setting [6]), the IC50 is above 100 µM.
As for `O=C1C(Cl)=C(N(Cc2ccccc2)c2ccc(S(=O)(=O)Nc3ccccn3)cc2)C(=O)c2ccccc21` [Compound 6c, 4-(Benzyl(3-chloro-1,4-dioxo-1,4-dihydronaphthalen-2-yl)amino)-N-(pyridin-2-yl) benzenesulfonamide], the IC50 in assay [1] (setting [6]) was above 100 µM.
With `O=C1C(Cl)=C(N(Cc2ccc([N+](=O)[O-])cc2)c2ccc(S(=O)(=O)Nc3ccccn3)cc2)C(=O)c2ccccc21` [Compound 6d, 4-((3-Chloro-1,4-dioxo-1,4-dihydronaphthalen-2-yl)(4-nitrobenzyl)amino)-N-(pyridin-2-yl)benzenesulfonamide], the IC50 in assay [1] was above 100 µM.
In assay [1], `O=C1C(Cl)=C(N(Cc2ccc3ccccc3c2)c2ccc(S(=O)(=O)Nc3ccccn3)cc2)C(=O)c2ccccc21` [Compound 6e, 4-((3-Chloro-1,4-dioxo-1,4-dihydronaphthalen-2-yl)(naphthalen-2-ylmethyl)amino)-N-(pyridin-2-yl)benzenesulfonamide] yielded an IC50 above 100 µM.
The compound `Cc1ccc(CN(C2=C(Cl)C(=O)c3ccccc3C2=O)c2ccc(S(=O)(=O)Nc3ccccn3)cc2)cc1` [Compound 6f, 4-((3-Chloro-1,4-dioxo-1,4-dihydronaphthalen-2-yl)(4-methylbenzyl)amino)-N-(pyridin-2-yl)benzenesulfonamide] gave an IC50 in assay [1] above 100 µM.
For the compound `O=C1C(Cl)=C(N(Cc2ccc(C(F)(F)F)cc2)c2ccc(S(=O)(=O)Nc3ccccn3)cc2)C(=O)c2ccccc21` [Compound 6g, 4-((3-Chloro-1,4-dioxo-1,4-dihydronaphthalen-2-yl)(4-(trifluoromethyl)benzyl)amino)-N-(pyridin-2-yl)benzenesulfonamide], in assay [1], the IC50 was above 100 µM.
For `O=C1C(Cl)=C(Nc2ccc(S(=O)(=O)Nc3ccccn3)cc2)C(=O)c2ccccc21` [PI-083, 4-(3-Chloro-1,4-dioxo-1,4-dihydronaphthalen-2-ylamino)-N-(pyridin-2-yl)benzenesulfonamide], the results for the IC50 in the assay on purified Calpain and with MCF-7 cells were above 30 µM and 2.31 ± 0.1 µM, respectively. Also, the “inhibition of CT-L activity of the 20S proteasome in the absence of dialysis” value in assay [2] is listed as 88%. In addition, the “time of dialysis at which CT-L activity started to recover” value in assay [2] came out at 1 h. Also, in assay [3], the “growth of human breast and lung tumor xenografts” value is reported as “suppresses the growth”. Moreover, the “apoptosis in cancer cell lines” value in assay [4] is listed as “induces apoptosis”. Besides, the “proliferation and survival of primary cells” value in assay [5] was “efficient in inhibiting proliferation and survival”.
Take `Nc1ccc(S(=O)(=O)Nc2ccccn2)cc1` [sulfapyridine]: the IC50 in assay [1] is above 100 µM.

A word on the IC50: it is the concentration needed to halve the response being measured.

Values taken from publication PMC3530924 (Bioorganic & medicinal chemistry, 2010).
